From the supplement of paper PMC10331698
± gives the standard deviation of the averaged measurements.

Experiments:
Experiment in all cases: LOEC (log10 uM (lowest observed effect concentration))
[1] = compound: OCCCC(F)(F)C(F)(F)C(F)(F)C(F)(F)C(F)(F)C(F)(F)C(F)(F)F [7:3 Fluorotelomer alcohol]
Description: (§1)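 BioMAP Diversity Plus panel in human primary cell co-cultures, 4 concentrations in duplicate blinded samples. Responses are log10 fold change versus DMSO control, processed with tcpl v2.1.0. A hit is called when responses at any concentration exceed the cutoff (the larger of 3*bmad or log10(1.2)); the lowest observed effect concentration (modl_ga, log10 uM) is reported for hits.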

Perfluorodecanoic acid = compound: O=C(O)C(F)(F)C(F)(F)C(F)(F)C(F)(F)C(F)(F)C(F)(F)C(F)(F)C(F)(F)C(F)(F)F [Perfluorodecanoic acid]
Description: as §1

[2] = compound: CCN(CCO)S(=O)(=O)C(F)(F)C(F)(F)C(F)(F)C(F)(F)C(F)(F)C(F)(F)C(F)(F)C(F)(F)F [N-Ethyl-N-(2-hydroxyethyl)perfluorooctanesulfonamide]
Description: as §1

[3] = compound: OCCC(F)(F)C(F)(F)C(F)(F)C(F)(F)C(F)(F)C(F)(F)F [6:2 Fluorotelomer alcohol]
Description: as §1

[4] = compound: C[N+](C)(C)CCCNS(=O)(=O)C(F)(F)C(F)(F)C(F)(F)C(F)(F)C(F)(F)C(F)(F)C(F)(F)C(F)(F)F [Perfluorooctanesulfonamido ammonium iodide]
Description: as §1

Row | Test System | LOEC (log10 uM) [1] | LOEC (log10 uM) (Perfluorodecanoic acid) | LOEC (log10 uM) [2] | LOEC (log10 uM) [3] | LOEC (log10 uM) [4]
1 | 3C Eselectin down | 1.54 ± 0.34 | 1.78 |  |  | 
2 | 3C HLADR down | 1.54 ± 0.34 | 1.78 | 1.78 | 1.78 | 
3 | 3C ICAM1 down | 1.78 | 1.78 |  | 1.78 | 
4 | 3C IL8 down | 1.78 | 1.78 |  |  | 1.78
5 | 3C MCP1 down | 1.54 ± 0.34 | 1.78 | 1.3 | 1.78 | 
6 | 3C MIG down | 1.78 | 1.78 |  | 1.78 | 
7 | 3C SRB down | 1.3 | 1.78 | 1.07 ± 0.32 | 1.78 | 1.78
8 | 3C Thrombomodulin up |  |  | 1.3 |  | 
9 | 3C TissueFactor down | 1.54 ± 0.34 | 1.78 |  | 1.78 | 
10 | 3C TissueFactor up |  |  |  |  | 1.78
11 | 3C VCAM1 down | 1.3 | 1.78 |  |  | 
12 | 3C uPAR down | 1.78 | 1.78 |  | 1.78 | 
13 | 4H Eotaxin3 down | 1.54 ± 0.34 | 1.78 | 1.54 ± 0.34 |  | 1.78
14 | 4H MCP1 down | 1.78 | 1.78 |  |  | 
15 | 4H Pselectin down | 1.78 | 1.78 | 1.54 ± 0.34 |  | 1.78
16 | 4H SRB down | 1.78 | 1.78 | 1.54 ± 0.34 |  | 
17 | 4H VCAM1 down | 1.78 | 1.78 |  |  | 
18 | 4H VEGFRII down | 1.78 | 1.78 |  |  | 
19 | 4H VEGFRII up |  |  |  |  | 1.78
20 | 4H uPAR down | 1.78 | 1.78 |  |  | 
21 | BE3C EGFR down | 1.78 |  | 1.78 |  | 
22 | BE3C ICAM1 down | 1.78 | 1.3 |  |  | 
23 | BE3C IL1a down | 1.78 | 1.3 | 1.54 ± 0.34 |  | 
24 | BE3C IL8 down | 1.78 | 1.3 | 1.3 |  | 1.54 ± 0.34
25 | BE3C ITAC down | 1.78 | 1.3 | 1.78 |  | 
26 | BE3C Keratin818 down | 1.78 | 1.3 |  |  | 

Row | Test System | LOEC (log10 uM) [1] | LOEC (log10 uM) (Perfluorodecanoic acid) | LOEC (log10 uM) [2] | LOEC (log10 uM) [3] | LOEC (log10 uM) [4]
27 | BE3C MIG down | 1.78 | 1.3 | 1.78 |  | 
28 | BE3C MMP1 down | 1.78 | 1.3 |  |  | 
29 | BE3C MMP9 down | 1.78 | 1.3 | 1.54 ± 0.34 |  | 
30 | BE3C PAI1 down | 1.78 | 1.3 | 1.78 |  | 
31 | BE3C SRB down | 1.78 | 1.3 | 1.78 |  | 
32 | BE3C tPA down | 1.78 | 1.3 |  |  | 1.78
33 | BE3C uPA down | 1.78 | 1.3 | 1.78 |  | 
34 | BE3C uPAR down | 1.78 | 1.3 | 1.78 |  | 
35 | BF4T CD90 down | 1.78 | 1.3 |  |  | 
36 | BF4T IL1a down | 1.78 | 1.54 ± 0.34 |  |  | 1.78
37 | BF4T IL8 down | 1.78 |  |  |  | 
38 | BF4T Keratin818 down | 1.78 | 1.3 |  |  | 1.78
39 | BF4T MMP1 down |  | 1.3 |  |  | 
40 | BF4T MMP3 down | 1.78 | 1.54 ± 0.34 |  |  | 
41 | BF4T MMP3 up |  |  | 1.78 |  | 1.78
42 | BF4T MMP9 down | 1.78 | 1.3 |  |  | 1.78
43 | BF4T SRB down | 1.78 | 1.3 |  |  | 
44 | BF4T VCAM1 down | 1.78 | 1.3 |  |  | 
45 | BF4T tPA up |  |  | 1.78 |  | 
46 | BF4T uPA down | 1.78 | 1.3 |  |  | 
47 | BT Bcell Proliferation down | 1.3 |  | 1.54 ± 0.34 |  | 
48 | BT PBMCCytotoxicity down | 1.3 |  |  | 1.78 | 
49 | BT sIgG down | 1.54 ± 0.34 |  | 1.3 |  | 1.78
50 | BT xIL2 down | 1.3 |  | 1.3 |  | 1.78
51 | BT xIL6 down | 1.3 |  | 1.78 |  | 
52 | BT xIL17A down | 1.3 |  | 1.3 |  | 1.78

Row | Test System | LOEC (log10 uM) [1] | LOEC (log10 uM) (Perfluorodecanoic acid) | LOEC (log10 uM) [2] | LOEC (log10 uM) [3] | LOEC (log10 uM) [4]
53 | BT xTNFa down | 1.3 |  | 1.3 | 1.78 | 1.54 ± 0.34
54 | CASM3C HLADR down | 1.54 ± 0.34 |  | 1.54 ± 0.34 |  | 
55 | CASM3C IL6 down | 1.78 |  |  |  | 
56 | CASM3C LDLR down | 1.78 |  | 1.07 ± 0.32 |  | 
57 | CASM3C LDLR up |  |  |  |  | 1.54 ± 0.34
58 | CASM3C MCP1 down | 1.3 |  |  |  | 
59 | CASM3C MCSF down | 1.54 ± 0.34 |  |  |  | 
60 | CASM3C MIG down | 1.3 |  | 1.3 |  | 
61 | CASM3C PAI1 down | 1.78 |  |  |  | 
62 | CASM3C SAA down | 1.78 |  |  |  | 
63 | CASM3C SRB down | 1.54 ± 0.34 |  | 1.3 |  | 
64 | CASM3C Thrombomodulin up |  |  | 1.3 |  | 
65 | CASM3C VCAM1 down | 1.3 | 1.78 | 1.07 ± 0.32 |  | 
66 | CASM3C uPAR down | 1.78 |  | 1.54 ± 0.34 |  | 
67 | IMphg CD69 down |  | 1.78 | 1.3 |  | 1.3
68 | IMphg ESelectin down |  | 1.78 |  |  | 
69 | IMphg ESelectin up |  |  | 0.845 |  | 
70 | IMphg IL8 down |  |  |  |  | 1.54 ± 0.34
71 | IMphg MCP1 down | 1.78 | 1.78 |  |  | 
72 | IMphg MIP1a down |  | 1.78 |  |  | 1.78
73 | IMphg MIP1a up | 1.78 |  | 1.3 |  | 
74 | IMphg SRB down | 1.78 | 1.78 | 1.78 |  | 1.78
75 | IMphg SRB.Mphg down |  | 1.78 |  |  | 1.04 ± 1
76 | IMphg VCAM1 down |  | 1.78 |  |  | 1.54 ± 0.34
77 | KF3CT ICAM1 down | 1.54 ± 0.34 | 1.78 |  |  | 
78 | KF3CT IL1a down | 1.54 ± 0.34 | 1.78 | 1.3 |  | 

Row | Test System | LOEC (log10 uM) [1] | LOEC (log10 uM) (Perfluorodecanoic acid) | LOEC (log10 uM) [2] | LOEC (log10 uM) [3] | LOEC (log10 uM) [4]
79 | KF3CT IL8 down | 1.78 |  | 0.845 |  | 
80 | KF3CT IP10 down | 1.54 ± 0.34 | 1.3 | 1.3 |  | 1.78
81 | KF3CT MCP1 down | 1.54 ± 0.34 | 1.07 ± 0.32 |  |  | 
82 | KF3CT MIG down | 1.54 ± 0.34 | 1.78 | 1.78 |  | 
83 | KF3CT MMP9 down | 1.3 | 1.07 ± 0.32 | 1.54 ± 0.34 |  | 1.78
84 | KF3CT PAI1 down | 1.3 | 1.3 | 0.845 |  | 1.78
85 | KF3CT SRB down | 1.54 ± 0.34 | 1.78 |  |  | 1.78
86 | KF3CT TIMP2 down | 1.3 | 1.78 |  |  | 
87 | KF3CT uPA down | 1.54 ± 0.34 | 1.78 | 1.78 |  | 
88 | LPS CD40 down | 1.78 | 1.78 |  | 1.78 | 1.78
89 | LPS CD69 down | 1.78 | 1.78 | 0.845 |  | 
90 | LPS Eselectin down | 1.78 | 1.78 |  |  | 
91 | LPS IL1a down |  | 1.78 | 1.3 |  | 1.54 ± 0.34
92 | LPS IL8 down | 1.78 | 1.78 |  |  | 1.3
93 | LPS MCP1 down | 1.54 ± 0.34 | 1.78 | 1.78 |  | 
94 | LPS MCSF down | 1.78 | 1.78 |  |  | 1.78
95 | LPS PGE2 down |  | 1.78 |  |  | 1.3
96 | LPS SRB down | 1.78 | 1.78 | 1.54 ± 0.34 |  | 1.78
97 | LPS TNFa down | 1.54 ± 0.34 | 1.78 |  |  | 1.3
98 | LPS Thrombomodulin down | 1.78 | 1.78 |  |  | 
99 | LPS Thrombomodulin up |  |  | 0.573 ± 0.39 |  | 
100 | LPS TissueFactor down | 1.78 | 1.78 |  |  | 
101 | LPS TissueFactor up |  |  | 1.07 ± 0.32 |  | 
102 | LPS VCAM1 down | 1.54 ± 0.34 | 1.78 | 1.78 |  | 1.78
103 | MyoF CollagenIV down | 1.78 |  |  |  | 
104 | MyoF Decorin down | 1.78 | 1.78 |  |  | 

Row | Test System | LOEC (log10 uM) [1] | LOEC (log10 uM) (Perfluorodecanoic acid) | LOEC (log10 uM) [2] | LOEC (log10 uM) [3] | LOEC (log10 uM) [4]
105 | MyoF Decorin up |  |  |  |  | 1.07 ± 0.32
106 | MyoF IL8 down |  |  | 0.845 |  | 
107 | MyoF TIMP1 down | 1.78 | 1.78 |  |  | 
108 | MyoF bFGF down | 1.78 | 1.78 |  |  | 1.78
109 | SAg CD38 down | 1.54 ± 0.34 | 1.78 | 1.3 |  | 
110 | SAg CD40 down | 1.78 | 1.78 | 1.78 |  | 1.78
111 | SAg CD69 down | 1.78 | 1.78 | 1.54 ± 0.34 |  | 
112 | SAg Eselectin down | 1.78 | 1.78 |  |  | 
113 | SAg IL8 down | 1.54 ± 0.34 | 1.78 |  |  | 
114 | SAg MCP1 down | 1.54 ± 0.34 | 1.78 | 1.54 ± 0.34 |  | 
115 | SAg MIG down | 1.78 | 1.78 |  |  | 
116 | SAg PBMCCytotoxicity down | 1.3 | 1.78 | 1.54 ± 0.34 | 1.78 | 
117 | SAg Proliferation down | 1.3 | 1.78 | 1.3 | 1.78 | 1.78
118 | SAg SRB down | 1.78 | 1.78 | 1.3 |  | 1.78
119 | hDFCGF CollagenI down | 1.3 |  |  | 1.78 | 
120 | hDFCGF CollagenIII down | 1.3 | 1.78 |  |  | 1.07 ± 0.32
121 | hDFCGF EGFR down | 1.3 |  |  |  | 
122 | hDFCGF ICAM1 down | 1.3 | 1.78 |  | 1.78 | 
123 | hDFCGF IL8 down | 1.3 | 1.78 |  | 1.78 | 1.78
124 | hDFCGF MCSF up |  |  |  |  | 1.78
125 | hDFCGF MIG down | 1.3 | 1.07 ± 0.32 | 1.3 | 1.78 | 
126 | hDFCGF TIMP1 down | 1.3 | 1.78 |  | 1.78 | 
127 | hDFCGF TIMP2 down | 1.3 | 1.3 |  | 1.78 | 
128 | hDFCGF TIMP2 up |  |  | 0.845 |  | 1.07 ± 0.32
